According to patent US20190008790A1, “A METHOD FOR THE PREPARATION OF A DELIVERY DRUG DELIVERY SYSTEM AND A COMPOSITION THEREFOR” (Element Six (UK) Limited, priority 2015, published 2019):
≈ marks a conversion by molar mass, not a printed value.

How the values were obtained:
[1] = system: Staphylococcus aureus subsp. aureus MRSA252; test: Minimum Bactericidal Concentration Test (MBC), re-growth as percentage of positive control; type: cell-based; conditions: ciprofloxacin concentration, dilutions of 0.5 mg/ml stock, re-growth vs positive control, read-out: concentration at which activity against MRSA252 was maintained (MBC test)
Description: In this example, the efficacy of the product of Example 7 was tested against Comparative Example 7 using a Minimum Bactericidal Concentration Test (MBC) to compare the inhibitory.
A sample of the spray dried powder obtained from Example 7 was dispersed into deionised water to give a ciprofloxacin concentration of 0.5 mg/ml (“Solution A”). A dispersion having the same concentration of ciprofloxacin was prepared by dissolving ciprofloxacin into dimethyl sulfoxide (“Solution B”). A third sample (“Solution C”) consisting of a water saturated ciprofloxacin solution was prepared by dispersing powder obtained from Comparative Example 7.
All three solutions were diluted to various concentrations and were subject to Minimum Bactericidal Concentration Test (MBC) to compare the inhibitory activity via re-growth of Staphylococcus aureus subsp. aureus MRSA252 as percentage of positive control. […] Solution B (DMSO/ciprofloxacin organic solution) maintained activity against MRSA252 at 62.5 mg/L (see FIG. 4(b)).

[2] = system: Fusobacterium nucleatum; test: IC50 test (half maximal inhibitory concentration) on gram-negative bacterium; type: cell-based; conditions: Triclosan ppm, percentage growth compared to positive control, 800 ppm stock
Excerpt: The effectiveness of the active pharmaceutical ingredient may be measured by means of its “half maximal inhibitory concentration”, also known as the “IC50” value.
The IC50 of a substance is a measure of the effectiveness of that substance in inhibiting a specific biological or biochemical function. The IC50 indicates how much of a particular drug or other substance (inhibitor) is needed to inhibit a given biological process (or component of a process, i.e. an enzyme, cell, cell receptor or microorganism) by half. It is commonly used as a measure of antagonist drug potency in pharmacological research. The IC50 of a drug can be determined by constructing a dose-response curve and examining the effect of different concentrations of antagonist on reversing agonist activity. IC50 values can be calculated for a given antagonist by determining the concentration needed to inhibit half of the maximum biological response of the agonist.
A sample of the Triclosan™/nano-diamond powder produced according to Example 5 was dispersed into deionized water to form an 800 ppm Triclosan™ dispersion (Solution 1).
Triclosan™ was dissolved into an ethanol/water mixture (50/50 in volume) to form an 800 ppm Triclosan™ solution (Solution 2). An IC50 test was conducted with Solution 2 on gram-negative bacteria (Fusobacterium nucleatum). […]

Structure (SMILES) | MBC [1] [µg/mL] | IC50 [2] | IC50 ([2]; listed as Triclosan™ in a 50:50 by volume water/ethanol solution) [ppm]
O=C(O)c1cn(C2CC2)c2cc(N3CCNCC3)c(F)cc2c1=O [Solution B, ciprofloxacin] | 62.5 (≈ 189 µM) |  | 
Oc1cc(Cl)ccc1Oc1ccc(Cl)cc1Cl [Solution 2, 5-chloro-2-(2,4-dichloro-phenoxy)-phenol] |  | around 56 ppm | ~56
